In ChEMBL document CHEMBL3045426, “Synthesis, Antiviral and Antibacterial Activities of Isatin Mannich Bases” (Med Chem Res, 2005):
Converted amounts (≈) assume the structure as drawn.

Assays:
[1] = Selectivity index, ratio of CC50 for human MT4 cells to EC50 for HIV1 3B infected in MT4 cells; assay type: toxicity, cell-based; settings: read-out: Ratio CC50/EC50
[2] = test system: Vibrio cholerae; test: Antimicrobial activity against Vibrio cholerae 01 after 18 to 20 hr by agar dilution method; assay type: functional; settings: 1
[3] = test system: Priestia megaterium; test: Antimicrobial activity against Bacillus megaterium after 18 to 20 hr by agar dilution method; assay type: functional
[4] = test system: Enterobacter; test: Antimicrobial activity against Enterobacter after 18 to 20 hr by agar dilution method; assay type: functional
[5] = test system: Citrobacter freundii; test: Antimicrobial activity against Citrobacter freundii after 18 to 20 hr by agar dilution method; assay type: functional
[6] = test system: Salmonella enteritidis; test: Antimicrobial activity against Salmonella enterica subsp. enterica serovar Enteritidis after 18 to 20 hr by agar dilution method; assay type: functional
[7] = test system: Salmonella typhimurium; test: Antimicrobial activity against Salmonella enterica subsp. enterica serovar Typhimurium after 18 to 20 hr by agar dilution method; assay type: functional
[8] = test system: Proteus mirabilis; test: Antimicrobial activity against Proteus mirabilis after 18 to 20 hr by agar dilution method; assay type: functional
[9] = test system: Proteus vulgaris; test: Antimicrobial activity against Proteus vulgaris after 18 to 20 hr by agar dilution method; assay type: functional
[10] = test system: Edwardsiella tarda; test: Antimicrobial activity against Edwardsiella tarda after 18 to 20 hr by agar dilution method; assay type: functional
[11] = test system: Escherichia coli; test: Antimicrobial activity against Escherichia coli NCTC 10418 after 18 to 20 hr by agar dilution method; assay type: functional
[12] = test system: Salmonella typhi; test: Antimicrobial activity against Salmonella enterica subsp. enterica serovar Typhi after 18 to 20 hr by agar dilution method; assay type: functional
[13] = test system: Salmonella paratyphi; test: Antimicrobial activity against Salmonella enterica subsp. enterica serovar Paratyphi A after 18 to 20 hr by agar dilution method; assay type: functional
[14] = test system: Vibrio parahaemolyticus; test: Antimicrobial activity against Vibrio parahaemolyticus after 18 to 20 hr by agar dilution method; assay type: functional
[15] = test system: Vibrio cholerae; test: Antimicrobial activity against Vibrio cholerae 0139 after 18 to 20 hr by agar dilution method; assay type: functional; settings: 139
[16] = test system: Vibrio fluvialis; test: Antimicrobial activity against Vibrio fluvialis after 18 to 20 hr by agar dilution method; assay type: functional
[17] = test system: Vibrio mimicus; test: Antimicrobial activity against Vibrio mimicus after 18 to 20 hr by agar dilution method; assay type: functional
[18] = test system: Pseudomonas aeruginosa; test: Antimicrobial activity against Pseudomonas aeruginosa after 18 to 20 hr by agar dilution method; assay type: functional
[19] = test system: Staphylococcus aureus; test: Antimicrobial activity against Staphylococcus aureus after 18 to 20 hr by agar dilution method; assay type: functional
[20] = test system: Morganella morganii; test: Antimicrobial activity against Morganella morganii after 18 to 20 hr by agar dilution method; assay type: functional
[21] = test system: Shigella boydii; test: Antimicrobial activity against Shigella boydii after 18 to 20 hr by agar dilution method; assay type: functional
[22] = test system: Plesiomonas; test: Antimicrobial activity against Plesiomonas after 18 to 20 hr by agar dilution method; assay type: functional
[23] = test system: Shigella sonnei; test: Antimicrobial activity against Shigella sonnei after 18 to 20 hr by agar dilution method; assay type: functional
[24] = test system: Klebsiella pneumoniae; test: Antimicrobial activity against Klebsiella pneumoniae after 18 to 20 hr by agar dilution method; assay type: functional
[25] = test system: Klebsiella pneumoniae; test: Antimicrobial activity against Klebsiella pneumoniae subsp. ozaenae after 18 to 20 hr by agar dilution method; assay type: functional
[26] = test system: Mycobacterium tuberculosis; test: Antimycobacterial activity against Mycobacterium tuberculosis H37Rv ATCC 27294 at 6.25 ug/ml by MABA; assay type: functional
[27] = Cytotoxicity against Homo sapiens (human) HuH7 cells assessed as cell growth at 50 ug/ml after 3 days by Neutral red assay; assay type: cell-based, Huh-7; settings: read-out: Activity
[28] = Cytotoxicity against Homo sapiens (human) CEM cells after 5 days by MTT assay; assay type: cell-based; settings: CEM cells (CCRF-CEM)
[29] = test system: Human immunodeficiency virus 1; test: Antiviral activity against Human immunodeficiency virus 1 IIIB infected CEM cells assessed as protection against viral infection after 6 days by XTT assay; assay type: functional, CCRF-CEM; set-up: concentration or dose not given beside the values
[30] = test system: Human immunodeficiency virus 1; test: Antiviral activity against Human immunodeficiency virus 1 IIIB infected CEM cells assessed as inhibition of virus-induced cytopathicity after 6 days by XTT assay; assay type: functional, organism-based; settings: CCRF-CEM, 144 h
[31] = Cytotoxicity against Homo sapiens (human) MT4 cells after 5 days by MTT assay; assay type: cell-based
[32] = test system: Human immunodeficiency virus 1; test: Antiviral activity against Human immunodeficiency virus 1 IIIB infected MT4 cells assessed as inhibition of virus-induced cytopathicity after 5 days by MTT assay; assay type: functional, organism-based; settings: MT4, 120 h
[33] = test system: Hepatitis C virus; test: Antiviral activity against Hepatitis C virus BM4-5 infected in Huh7 cells assessed as inhibition of viral RNA replication by phosphor screening method; assay type: functional, Hepacivirus hominis, Huh-7
[34] = test system: Human immunodeficiency virus 1; test: Antiviral activity against Human immunodeficiency virus 1 IIIB infected MT4 cells assessed as protection against viral infection after 5 days by MTT assay; assay type: functional; set-up: concentration or dose not given beside the values
[35] = test system: Escherichia coli; test: Antibacterial activity against Escherichia coli NCTC 10418 infected in po dosed CF mouse compound administered 1 hr prior and 4 hr post infection; assay type: functional; settings: NCTC 10418, po

Row | Structure (SMILES) | MIC [2] | MIC [3] | MIC [4] | MIC [5] | MIC [6] | MIC [7] | MIC [8] | MIC [9] | MIC [10] | MIC [12] | MIC [13] | MIC [14] | MIC [15] | MIC [16] | MIC [17] | MIC [18] | MIC [19] | MIC [20] | MIC [21] | MIC [22] | other results
1 | CCN(CC)CN1C(=O)/C(=N\c2ncc(Cc3cc(OC)c(OC)c(OC)c3)c(N)n2)c2cc(Cl)ccc21 | 1.22 µg/mL (≈ 2.26 µM) | 1250 µg/mL (≈ 2320 µM) | 312 µg/mL (≈ 580 µM) | 312 µg/mL (≈ 580 µM) | 625 µg/mL (≈ 1160 µM) | 312 µg/mL (≈ 580 µM) | 312 µg/mL (≈ 580 µM) | 625 µg/mL (≈ 1160 µM) | 1250 µg/mL (≈ 2320 µM) | 1250 µg/mL (≈ 2320 µM) | 78.1 µg/mL (≈ 145 µM) | 39.1 µg/mL (≈ 72.5 µM) | 312 µg/mL (≈ 580 µM) | 625 µg/mL (≈ 1160 µM) | 9.76 µg/mL (≈ 18.1 µM) | 1250 µg/mL (≈ 2320 µM) | 625 µg/mL (≈ 1160 µM) | 625 µg/mL (≈ 1160 µM) | 39.1 µg/mL (≈ 72.5 µM) | 19.5 µg/mL (≈ 36.2 µM) | selectivity ratio [1]: 3; MIC [11]: 1250 µg/mL (≈ 2320 µM); MIC [23]: 1250 µg/mL (≈ 2320 µM); MIC [24]: 1250 µg/mL (≈ 2320 µM); MIC [25]: 625 µg/mL (≈ 1160 µM); inhibition at 6.25 µg/mL [26]: 53%; viability at 72 h, 50 ug/ml [27]: 72%; CC50 at 120 h [28]: 98.4 µg/mL (≈ 183 µM); Activity [29]: 20.69%; EC50 [30]: > 98.4 µg/mL; CC50 at 120 h [31]: 79.1 µg/mL (≈ 147 µM); EC50 [32]: 23.6 µg/mL (≈ 43.8 µM); inhibition (INH) [33]: 67%; Activity [34]: 64.1%
2 | COc1cc(Cc2cnc(/N=C3\C(=O)N(CN4CCN(c5cccc(Cl)c5)CC4)c4ccc(Cl)cc43)nc2N)cc(OC)c1OC | 0.61 µg/mL (≈ 0.921 µM) | 1250 µg/mL (≈ 1890 µM) | 625 µg/mL (≈ 943 µM) | 1250 µg/mL (≈ 1890 µM) | 1250 µg/mL (≈ 1890 µM) | 625 µg/mL (≈ 943 µM) | 1250 µg/mL (≈ 1890 µM) | 1250 µg/mL (≈ 1890 µM) | 1250 µg/mL (≈ 1890 µM) | 1250 µg/mL (≈ 1890 µM) | 1250 µg/mL (≈ 1890 µM) | 1.22 µg/mL (≈ 1.84 µM) | 625 µg/mL (≈ 943 µM) | 625 µg/mL (≈ 943 µM) | 9.76 µg/mL (≈ 14.7 µM) | 156 µg/mL (≈ 236 µM) | 1250 µg/mL (≈ 1890 µM) | 1250 µg/mL (≈ 1890 µM) | 19.5 µg/mL (≈ 29.5 µM) | 19.5 µg/mL (≈ 29.5 µM) | MIC [11]: 1250 µg/mL (≈ 1890 µM); MIC [23]: 1250 µg/mL (≈ 1890 µM); MIC [24]: 1250 µg/mL (≈ 1890 µM); MIC [25]: 1250 µg/mL (≈ 1890 µM); inhibition at 6.25 µg/mL [26]: 44%; viability at 72 h, 50 ug/ml [27]: 67%; CC50 at 120 h [28]: 34.4 µg/mL (≈ 51.9 µM); Activity [29]: 23%; EC50 [30]: > 34.4 µg/mL; CC50 at 120 h [31]: 39.2 µg/mL (≈ 59.2 µM); EC50 [32]: > 39.2 µg/mL; inhibition (INH) [33]: 96%; Activity [34]: 20.9%
3 | O=C(O)c1cn(C2CC2)c2cc(N3CCNCC3)c(F)cc2c1=O [CIPROFLOXACIN] | 0.04 µg/mL (≈ 0.121 µM) | 0.04 µg/mL (≈ 0.121 µM) | 0.04 µg/mL (≈ 0.121 µM) | 0.04 µg/mL (≈ 0.121 µM) | 0.04 µg/mL (≈ 0.121 µM) | 0.04 µg/mL (≈ 0.121 µM) | 0.04 µg/mL (≈ 0.121 µM) | 0.04 µg/mL (≈ 0.121 µM) | 0.04 µg/mL (≈ 0.121 µM) | 0.04 µg/mL (≈ 0.121 µM) | 0.04 µg/mL (≈ 0.121 µM) | 0.04 µg/mL (≈ 0.121 µM) | 0.04 µg/mL (≈ 0.121 µM) | 0.04 µg/mL (≈ 0.121 µM) | 0.04 µg/mL (≈ 0.121 µM) | 0.15 µg/mL (≈ 0.453 µM) | 0.04 µg/mL (≈ 0.121 µM) | 0.04 µg/mL (≈ 0.121 µM) | 0.04 µg/mL (≈ 0.121 µM) | 0.04 µg/mL (≈ 0.121 µM) | ED50 [35]: 1.25 mg/kg; MIC [23]: 0.04 µg/mL (≈ 0.121 µM); MIC [24]: 0.04 µg/mL (≈ 0.121 µM); MIC [25]: 0.15 µg/mL (≈ 0.453 µM)
4 | CCn1cc(C(=O)O)c(=O)c2cc(F)c(N3CCNC(C)C3)c(F)c21 (stereo unspecified) [LOMEFLOXACIN] | 0.02 µg/mL (≈ 0.0569 µM) | 19.5 µg/mL (≈ 55.6 µM) | 19.5 µg/mL (≈ 55.6 µM) | 19.5 µg/mL (≈ 55.6 µM) | 19.5 µg/mL (≈ 55.6 µM) | 4.88 µg/mL (≈ 13.9 µM) | 2.44 µg/mL (≈ 6.94 µM) | 0.61 µg/mL (≈ 1.74 µM) | 4.88 µg/mL (≈ 13.9 µM) | 9.77 µg/mL (≈ 27.8 µM) | 0.61 µg/mL (≈ 1.74 µM) | 39.1 µg/mL (≈ 111 µM) | 2.44 µg/mL (≈ 6.94 µM) | 1.22 µg/mL (≈ 3.47 µM) | 1.22 µg/mL (≈ 3.47 µM) | 4.88 µg/mL (≈ 13.9 µM) | 0.61 µg/mL (≈ 1.74 µM) | 1.22 µg/mL (≈ 3.47 µM) | 9.77 µg/mL (≈ 27.8 µM) | 1.22 µg/mL (≈ 3.47 µM) | ED50 [35]: 1.87 mg/kg; MIC [11]: 0.61 µg/mL (≈ 1.74 µM); MIC [23]: 39.1 µg/mL (≈ 111 µM); MIC [24]: 2.44 µg/mL (≈ 6.94 µM); MIC [25]: 1.22 µg/mL (≈ 3.47 µM)
